From PubChem BioAssay (NCI)
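Tested at 5 concentrations; 48 h exposure; 96-well plates; endpoints linearly interpolated, else capped at highest concentration. The concentration for 50% growth inhibition is given as GI50. At the TGI there is no net growth.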

What was measured:
Assay in all cases: NCI anticancer screen, dose series, 48 h
IGROV1 ovarian = system: IGROV1 ovarian
HS 578T breast = system: HS 578T breast
MALME-3M melanoma = system: MALME-3M melanoma
UO-31 renal = system: UO-31 renal
HL-60(TB) leukemia = system: HL-60(TB) leukemia
A549 NSCLC = system: A549 NSCLC
SF-295 CNS = system: SF-295 CNS
SK-OV-3 ovarian = system: SK-OV-3 ovarian
SF-268 CNS = system: SF-268 CNS
NCI-H226 lung = system: NCI-H226 lung

| Compound | TGI (IGROV1 ovarian) [µM] | TGI (HS 578T breast) [µM] | TGI (MALME-3M melanoma) [µM] | TGI (UO-31 renal) [µM] | TGI (HL-60(TB) leukemia) [µM] | TGI (A549 NSCLC) [µM] | TGI (SF-295 CNS) [µM] | TGI (SK-OV-3 ovarian) [µM] | TGI (SF-268 CNS) [µM] | TGI (NCI-H226 lung) [µM] | GI50 (IGROV1 ovarian) [µM] | GI50 (HS 578T breast) [µM] | GI50 (MALME-3M melanoma) [µM] | GI50 (UO-31 renal) [µM] | GI50 (HL-60(TB) leukemia) [µM] | GI50 (A549 NSCLC) [µM] | GI50 (SF-295 CNS) [µM] | GI50 (SK-OV-3 ovarian) [µM] | GI50 (SF-268 CNS) [µM] | GI50 (NCI-H226 lung) [µM] |
| --- | --- | --- | --- | --- | --- | --- | --- | --- | --- | --- | --- | --- | --- | --- | --- | --- | --- | --- | --- | --- |
| O=P(O)(O)CN1CCNCCN(CP(=O)(O)O)CCNCC1 | > 51.2 | > 100 | > 100 | > 100 | 15.2 | > 100 | > 100 | > 100 | > 100 | > 94.9 | – | – | – | – | – | – | – | – | – | – |
| O=S1(=O)CCN(c2ccccc2CC(c2c[nH]c3ccccc23)c2c[nH]c3ccccc23)CC1 | 33.4 | 42.7 | 43.7 | 72 | 12.7 | > 78.2 | 49.9 | > 79 | 62.2 | 42.7 | – | – | – | – | – | – | – | – | – | – |
| COc1ccc(C=Nc2ccc(-c3nc4ccccc4[nH]3)cc2)cc1OC | > 100 | > 100 | > 100 | > 100 | > 100 | > 100 | > 100 | > 100 | > 100 | > 100 | – | – | – | – | – | – | – | – | – | – |
| O=C1C=C(N2CCN(c3ccccn3)CC2)C(=O)c2c(O)ccc(O)c21 | 43.5 | > 70.3 | 1.63 | > 46.4 | 20.3 | 40.7 | 51.5 | 51.3 | > 56.2 | > 56.2 | – | – | – | – | – | – | – | – | – | – |
| CCCCCCCCCCCCCCCCOCC(Cl)COP(=O)(O)OP(=O)(O)OCC1OC(n2cnc3c(N)ncnc32)C(O)C1O (centres undefined) | > 100 | > 100 | > 100 | > 100 | > 100 | > 100 | > 100 | > 100 | > 100 | > 100 | – | – | – | – | – | – | – | – | – | – |
| O=C1CC2(CCNCC2)C(=O)N1N1CCOCC1 | > 100 | > 100 | > 100 | > 100 | > 100 | > 100 | > 100 | > 100 | > 100 | > 100 | – | – | – | – | – | – | – | – | – | – |
| COC(=O)/C=C/c1ccc2c(c1)CC1(Cc3ccccc3C1)C2 | > 100 | 80.4 | > 100 | > 100 | 67.3 | > 100 | > 100 | > 100 | – | > 100 | – | – | – | – | – | – | – | – | – | – |
| COc1cc(-n2cc(-c3cc(O)c(C/C=C(\C)CCC=C(C)C)c(O)c3)nn2)cc2c1O[C@]1(C)CC[C@@H](O)C(C)(C)[C@H]1C2 | 28.5 | 3.41 | 8.4 | 1.96 | 3.88 | 20.7 | 0.122 | 33.3 | 30.4 | 68.4 | 1.85 | 0.0452 | 1.38 | 0.365 | 0.0655 | 1.12 | 0.028 | 2.3 | 2.03 | 5.98 |
| C/C(=N\Nc1ccccc1)C(CN(C)C)C(c1ccccc1)c1c(O)c2ccccc2oc1=O (centres undefined) | > 100 | > 100 | > 100 | > 100 | > 100 | > 100 | > 100 | > 100 | > 100 | > 100 | – | – | – | – | – | – | – | – | – | – |
| NC(=O)C1=CC2C3C=CC2(O)C(=O)OC3O1 (centres undefined) | 11.7 | 5.57 | 4.03 | 13.7 | 10.5 | > 100 | 27.1 | 57.4 | 20.9 | 5.83 | – | – | – | – | – | – | – | – | – | – |
| CCCNC(=O)CCC(C)[C@H]1CCC2C3C(C[C@H](OC(C)=O)[C@@]21C)[C@@]1(C)CCC2(C[C@H]1C[C@H]3OC(C)=O)OOC1(CCCCC1)OO2 (some centres undefined) | 2.22 | > 53 | 6.04 | 0.232 | 3.94 | 2.82 | 39.7 | > 100 | 10.4 | > 57.2 | – | – | – | – | – | – | – | – | – | – |
| COc1ccc(C(=O)c2ccc(-n3cc(/C=C/[N+](=O)[O-])c4ccccc43)cc2)cc1 | 26.2 | 19.9 | 46.8 | 37.1 | 44.6 | > 100 | > 100 | > 71.3 | > 54.1 | > 92.9 | – | – | – | – | – | – | – | – | – | – |
| O=C1OI(C#Cc2ccccc2)c2ccccc21 | 6.17 | 26.6 | 5.64 | 14.3 | 7.82 | 39.7 | 28.4 | 26.1 | 9.96 | 19 | – | – | – | – | – | – | – | – | – | – |
| CC12CC(C/C1=N/O)C(C)(C)C2 (centres undefined) | > 100 | > 100 | > 100 | > 100 | > 100 | > 100 | > 100 | > 100 | > 100 | > 100 | – | – | – | – | – | – | – | – | – | – |
| NC(=S)N/N=C\CC(O)(C(F)(F)F)C(F)(F)F | > 10 | > 10 | > 10 | > 10 | > 10 | > 10 | > 10 | > 10 | > 10 | > 10 | – | – | – | – | – | – | – | – | – | – |
| O=CNNC(=O)Nc1ccc(Cl)cc1 | > 100 | > 100 | > 100 | > 100 | > 100 | > 100 | > 100 | > 100 | > 100 | > 100 | – | – | – | – | – | – | – | – | – | – |
| CCCCCCOP(=O)(OCCCCCC)OC(C(=O)OC)C(F)(F)F (centres undefined) | > 100 | > 100 | > 100 | > 100 | > 100 | > 100 | > 100 | > 100 | > 100 | > 100 | – | – | – | – | – | – | – | – | – | – |
| O=C(/C=C/c1ccco1)c1cccc(C(=O)/C=C/c2ccco2)n1 | 53.5 | > 28.4 | > 100 | 24.9 | 0.417 | > 100 | > 100 | > 100 | > 38.9 | > 100 | – | – | – | – | – | – | – | – | – | – |
